One data set concerns MCL-1. Put plainly: MCL-1 expression in primary AML cells (real time PCR). The format is cell-based, human. On the procedure:
MCL-1 expression in Δ^12-PGJ3 treated AML was examined. MCL-1 is an antiapoptotic gene that belongs to the Bcl-2 family. Total RNA and cDNA were isolated from primary AML cells as indicated above. MCl-1 expression was measured using real time PCR. (Hs01050896-ml, Applied Biosystems).
(In general: Real-time PCR tracks product formation cycle by cycle.)

The test system of data set [1] is murine erythroleukemia (MEL) cells. In words: MEL cell apoptosis and viability (MTT, CCK-8). The data set is classed as cell-based, mouse. The method, then:
Cell culture. Murine erythroleukemia (MEL) cells were cultured in DMEM with 10% FBS. In order to examine the production 3-series PGs, BALB/c-derived RAW264.7 macrophage-like cells (ATCC) were cultured in DMEM containing 5% FBS, 250 nM sodium selenite, and 50 μM EPA (as BSA conjugate) for 72 h followed by stimulation with E. coli endotoxin lipopolysaccharide (LPS; Serotype 0111B4; 50 ng/ml) for 30 min. The cells were cultured in fresh DMEM for an additional 24-144 h. Cells cultured with cell culture-grade fatty acid free BSA (Sigma Aldrich) served as a control. Culture media was withdrawn at various times and analyzed for 3-series PGs as described below. Total RNA was isolated from cells or tissues using Trizol reagent as per the instructions of the supplier (Invitrogen, Carlsbad, Calif.) and cDNA was prepared using a High Capacity cDNA Reverse Transcriptase kit (Applied Biosystems, Foster City, Calif.). Semiquantitative RT-PCR for p53 and β-actin was performed with primers as described in Supplementary Methods. Nuclear and cytoplasmic protein extracts of LSCs were prepared using standard methods previously described (Vunta H et al., J Biol Chem. 2007; 282:17964-17973).
Cell viability studies. MEL cells were cultured in DMEM containing 10% FBS and treated with various commonly used anti-leukemic drugs such as daunorubicin (DNR), mitoxantrone (MIT), and cytarabine (CYT) at a final concentration […] for 24 h. […] After 24 h of drug treatment, cell proliferation was measured by MTT assay with CCK-8 kit from Dojindo Molecular Technologies, Inc. (Gaithersburg, Md.). All viability values reported are relative to untreated cells (UT) that was designated to be 100%. Results represent the mean±SEM of three independent observations.
In order to address whether MEL cells are resistant in general to chemotherapy agents, we tested whether MEL cells can be killed by apoptosis when treated with standard anti-leukemia drugs. Treatment with various commonly used anti-leukemic drugs such as daunorubicin (DNR), mitoxantrone (MIT), and cytarabine (CYT) at a final concentration 1 μM for 24 h. […] After 24 h of drug treatment, cell proliferation was measured by MTT assay with CCK-8 kit from Dojindo Molecular Technologies, Inc. (Gaithersburg, Md.). […] The results represent the mean±SEM of three independent observations.

Data set [2] relates to Human unfractionated bone marrow cells.
Description: Human unfractionated bone marrow cells (5×10^5 per well) were plated in methylcellulose complete media containing IL-3, GM-CSF, G-CSF, SCF and Epo supplemented with the indicated concentrations of drugs. Total colonies were counted after 12 days.

SMILES strings stand for the structures. “Also recorded” adds a separate entry of the source.

`CC/C=C\C[C@H](O)C/C=C1/C(=O)C=C[C@@H]1C/C=C\CCCC(=O)O` [Δ^12-PGJ3, Δ^12-prostaglandin J3]: the MCL-1 expression result in the data set on MCL-1 is “decreases the expression MCL1”. For the same compound, the “apoptosis of MEL cells (lack functional p53)” value in data set [1] is on record as “cannot induce apoptosis; also recorded: failed to initiate apoptosis”. The “total colonies of human bone marrow cells” value in data set [2] was “had no effect”.
